Laboratory results from PMC7551886, “Antitumour Effects of Astaxanthin and Adonixanthin on Glioblastoma” (Marine Drugs, 2020).

What was measured:
GL261 cells [1] = test: Cell viability (CCK-8 assay) in GL261; format: cell-based, mouse; conditions: GL261, treated for 96 h
Method: U251MG, GL261, or U87MG cells were seeded onto 96-well plates at a density of 2 × 10^3 cells/well with DMEM supplemented with 10% FBS and then incubated for 24 h, after which the culture medium was changed to DMEM containing 10% FBS. Then, astaxanthin, adonixanthin or temozolomide (Tokyo Chemical Industry Co., Ltd., Tokyo, Japan) were added to the culture. Cell proliferation was determined using the CCK-8 assay according to the manufacturer’s instructions (Dojindo, Kumamoto, Japan). After each incubation, 10 μL of CCK-8 solution were added to each well. Plates were incubated for 3 h for 37 °C, and the absorbance was read at 450 nm with a reference wavelength of 630 nm using a Varioscan Flash 2.4 microplate reader (Thermo Fisher Scientific, Waltham, MA, USA).

GL261 cells [2] = test: BrdU cell proliferation assay; format: cell-based, mouse; conditions: GL261, 10 µM treatment for 72 h; control group 60.56 ± 1.40%
Method: GL261 cells were seeded onto 96-well plates at a density of 2 × 10^3 cells/well with DMEM supplemented with 10% FBS and then incubated for 24 h, after which the culture medium was changed to DMEM containing 10% FBS. Then, astaxanthin, adonixanthin, or temozolomide (Tokyo Chemical Industry Co., Ltd., Tokyo, Japan) were added to the culture. After 72 h of culture, the culture medium was changed to DMEM containing 10% FBS and treated with BrdU at 10 µM for 3 h. After that, immunocytochemistry was performed according to the protocol of anti-BrdU antibody (abcam, ab6326).

U251MG cells = test: Wound healing (cell migration) assay in U251MG; format: cell-based, human; conditions: 10 µM, 48 h
Method: The cell migration assay was conducted as previously described. GL261 cells and U251 cells (2.0 × 10^4 cells per well) were plated in a 12-well plate (BD Biosciences, Tokyo, Japan) with culture medium supplemented with 10% FBS. After 24 h of incubation, the medium was changed to DMEM containing 1% FBS. After 6 h, wounds were scratched by a P1000 pipette tip and washed with phosphate-buffered saline (PBS) to eliminate cell debris. Then, fresh medium was added with 10 µM astaxanthin or adonixanthin. Pictures were taken at 48 h and these scratched areas were measured using an All-in-One Fluorescence Microscope (BZ-X710; Keyence, Osaka, Japan). The cell migration rate was measured the area of the wound before migration (S0) and after migration (S1) and calculated […]. The control group was then standardized to be 100%. Wound widths at 0 h were created within 1 to 1.5 mm and data were excluded if they were not suitable for that width.

ERK1/2 = test: Immunoblotting, phosphorylation of ERK1/2 in GL261; format: cell-based, mouse; conditions: GL261, 10 µM, 6 h post-treatment
Method: (§1) GL261 cell was seeded at 2.5 × 10^4 cells per well in 24-well plates with culture medium supplemented with 10% FBS. After 24 h of incubation, the medium was changed to DMEM containing 10% FBS and 0.1%DMSO PBS, 300 μM temozolomide, 10 μM astaxanthin, or 10 μM adonixanthin was added for 6 and 48 h. Cells were lysed in a special buffer (RIPA buffer R0278; Sigma-Aldrich, St. Louis, MO, USA) with a protease inhibitor cocktail (Sigma-Aldrich), phosphatase inhibitor cocktails 2 and 3 (Sigma-Aldrich), and sample buffer (Wako, Osaka, Japan). The protein concentration was determined by comparison with a known concentration of bovine serum albumin using the BCA Protein Assay Kit (Thermo Fisher Scientific). The amount of total protein was 2 μg. […] The band intensity was […] using an Immuno Star LD (Wako). Band intensity was measured using an LAS-4000 UV mini Luminescent Image Analyzer (Fujifilm, Tokyo Japan) and Multi Gauge Version 3.0 (Fujifilm). The phosphorylation of ERK1/2, Akt, and p38 MAPK was measured by normalizing against total ERK1/2, total Akt, and total p38 MAPK. […]

MMP-2 = test: Immunoblotting, MMP-2 expression in GL261; format: cell-based, mouse; conditions: GL261, 10 µM, 48 h
Method: as §1

Bcl-2 = test: Immunoblotting, Bcl-2 expression in GL261; format: cell-based, mouse; conditions: GL261, 10 µM, 48 h
Method: as §1, with “μg. Equal amounts of protein in sample buffer containing 10% 2-mercaptoethanol were subjected to sodium dodecyl sulphate polyacrylamide gel electrophoresis (SDS-PAGE) in 5-20% gradient gels (SuperSep Ace; Wako), and the separated proteins were transferred to polyvinylidene difluoride membrane (Immobilon-P; Merck Millipore Corporation, Bedford, MA, USA). After blocking for 30 min with Blocking One-P (Nacalai Tesque), we incubated the membranes with primary antibodies overnight at 4 °C.” for “μg.”

Row | SMILES | concentration above which cell viability was suppressed (GL261 cells [1]) | BrdU-positive cell rate (GL261 cells [2]) [%] | suppression of cell migration (U251MG cells) [%] | phosphorylation of ERK1/2 (ERK1/2) | MMP-2 expression (MMP-2) | expression of Bcl-2 vs. control (Bcl-2)
1 | CC1=C(/C=C/C(C)=C/C=C/C(C)=C/C=C/C=C(C)/C=C/C=C(C)/C=C/C2=C(C)C(=O)[C@@H](O)CC2(C)C)C(C)(C)C[C@H](O)C1 [Adonixanthin, adonixanthin] | > 0.1 µM | 41.31 ± 1.51 | 26.32 ± 5.14 | decreased | decreased | N.S.
2 | CC1=C(/C=C/C(C)=C/C=C/C(C)=C/C=C/C=C(C)/C=C/C=C(C)/C=C/C2=C(C)C(=O)[C@@H](O)CC2(C)C)C(C)(C)C[C@H](O)C1=O [Astaxanthin, astaxanthin] | more than 5 µM | 49.13 ± 2.66 | 21.15 ± 1.84 | decreased | decreased | N.S.
